{"source": "patent US20250241913A1", "about": "“COMBINATION THERAPIES BASED ON PD-1 INHIBITORS AND SIK3 INHIBITORS” (iOmx Therapeutics AG, priority 2022, published 2025)", "key": {"MC38 tumor cells": {"tested_on": "MC38 tumor cells", "test": "MC38 tumor model, subcutaneous, tumor growth, survival and flow cytometry of tumor infiltrating cells", "format": "in vivo, C57BI6/N mice", "experimental": "FIG. 3: (A) Average tumor growth kinetics and overall survival monitored for the MC38 tumor model after treatment start. Treatment regimes are indicated by indeces 1 to 4 in the figure and represent: (1) 10 ml/kg vehicle+10 mg/kg mIgG1e ctrl. (2) 10 ml/kg vehicle+10 mg/kg α-muPD-1 (3) 25 mg/kg compound E9+10 mg/kg mIgG1e ctrl. and (4) 25 mg/kg compound E9+10 mg/kg α-mu-PD-1 (B) Tumor infiltrating cytotoxic T cells (CTL), CTL to regulatory T cell ratio, tumor associated M2-macrohages (M2-TAM) and M2-like TAM were analyzed by flow cytometry.\nMC38 tumor cells were subcutaneously implanted in C57BI6/N mice, randomized at an average tumor volume of 100 mm^3 and tumor bearing mice were treated twice daily with 25 mg/kg compound E9 by oral gavage and twice weekly, intraperitoneal with 10 mg/kg anti-murine-PD-1 mAb (clone: RMP1-14) or corresponding controls."}, "KLN205 tumor cells": {"tested_on": "KLN205 tumor cells", "test": "KLN205 lung squamous cell carcinoma model, subcutaneous, tumor growth", "format": "in vivo, DBA/2 mice", "conditions": "compared to control, E9 25 mg/kg twice daily oral, anti-murine-PD-1 mAb 10 mg/kg twice weekly i.p.", "experimental": "FIG. 4: (A) Average tumor growth kinetics and overall survival monitored for the EMT6 tumor model after treatment start. […] Treatment regimes are indicated by indeces 1 to 4 in the figure and represent: (1) 10 ml/kg vehicle+10 mg/kg mIgG1e ctrl. (2) 10 ml/kg vehicle+10 mg/kg α-mu-PD-1 (3) 12.5 mg/kg compound E9+10 mg/kg mIgG1e ctrl. and (4) 12.5 mg/kg compound E9+10 mg/kg α-mu-PD-1 (B) Average tumor growth kinetics for the KLN205 tumor model upon initiation of therapy; Treatment regimes are indicated by indeces 1 to 4 in the figure and represent: (1) 10 ml/kg vehicle+10 mg/kg mIgG1e ctrl. (2) 10 ml/kg vehicle+10 mg/kg α-mu-PD-1 (3) 25 mg/kg compound E9+10 mg/kg mIgG1e ctrl. And (4) 25 mg/kg compound E9+10 mg/kg α-mu-PD-1.\nEMT6 tumor cells were implanted into mammary fat pad in BALB/c mice and randomized at an average tumor volume of 65mm^3. KLN205 tumor cells were subcutaneously implanted in DBA/2 mice and randomized at an average tumor volume of 60 mm^3. Both animal models were treated twice daily by oral gavage with the indicated doses of compound E9 and twice weekly, intraperitoneal with 10 mg/kg anti-murine-PD-1 mAb (clone: RMP1-14) or corresponding controls."}, "[1]": {"conditions": "monotherapy, 25 mg/kg E9 twice daily by oral gavage"}}}
{"smiles": "Cc1nc(Nc2ncc(C(=O)Nc3c(CF)csc3Cl)s2)cc(N2CCN(C)CC2)n1", "note": "[E9, N-(2-chloro-4-(fluoromethyl)thiophen-3-yl)-2-((2-methyl-6-(4-methylpiperazin-1-yl)pyrimidin-4-yl)amino)thiazole-5-carboxamide]", "values": [{"measurement": "CTL to Treg ratio", "setting": "MC38 tumor cells; flow cytometry", "value": "promotion"}, {"measurement": "cytotoxic T lymphocyte (CTL) activity", "setting": "MC38 tumor cells; flow cytometry", "value": "activating"}, {"measurement": "immunosuppressive myeloid cells in tumour microenvironment", "setting": "MC38 tumor cells; flow cytometry", "value": "reducing"}, {"measurement": "regulatory T cells (Treg) in tumour microenvironment", "setting": "MC38 tumor cells; flow cytometry", "value": "reducing"}, {"measurement": "anti-tumor efficacy", "setting": "MC38 tumor cells; [1]", "value": "highly significant anti-tumor efficacy"}, {"measurement": "survival", "setting": "MC38 tumor cells; [1]", "value": "prolonged survival"}, {"measurement": "Growth inhibition (TGI)", "setting": "KLN205 tumor cells", "value": 22, "unit": "%"}]}
